Assay: Effect of co-administered extracts on the pharmacokinetics of theophylline in rats
Details: male, Wistar, rat, in vivo; for Cmax: Cmax of Theophylline; for AUC(0-inf): AUC0-∞ of Theophylline; for MRT: MRT of Theophylline
Protocol: Carpediol spissum (Batch No Ex 20404); Swedish Herbal Institute, Gothenburg, Sweden) as described above in Example 1. […] It was analyzed for purity by HPLC, Capillary electrophoresis, ^1H-NMR and ^13C-NMR. • (e) Internal standard: Methyl-4-hydroxybenzoate 99%, F.W. 152.15 Aldrich. • (f) Water, demonized and distilled. • (g) Water for High Performance Capillary Electrophoresis (HPCE), HEWLETT-PACKARD. • (h) Buffer pH=9.3 for HPCE (50 mM Borate). • (i) 0.1N Sodium Hydroxide Solution for HPCE. • (j) Chloroform HPLC grade. • (k) 2-Propanol spectrophotometric grade. • (l) Methanol Chromasorv.
Animals—In this study, 144 time-mated male Wistar rats were used. Breeder: Institute of Fine Organic Chemistry of the National Academy of Science, Yerevan. The initial weight of the animals: 130-170 g (mean weight 149.93±12.4 g). […] All animals were clinically examined upon arrival and any animal showing signs of abnormality or disease was excluded. Animals considered unsuitable for the study were replaced before the start. No animal was replaced following the start of the study.
Dosage and Administration—An appropriate amount of herbal extract was dissolved in distilled water and given at 10:00-10:30 am by oral gavage. Suspensions were shaken gently before oral administration. Suspensions were prepared fresh every day. Control animals were given an appropriate volume of drinking water. Blood samples from rats receiving the carrier only were also analyzed.
Groups of six animals were treated orally with water (10 ml×2 times per day) for three days. 60 minutes after last administration of water, a solution of Aminophylline (10 ml/kg) was given to each animal in dose of 240 mg/kg (corresponding to 192 mg/kg of Theophylline) and blood samples were taken 0.25, 0.5, 1.0, 2.0, 4.0, 6.0 and 8.0 hours after the theophylline administration. A separate group of animals was used for each time point.
It was administered orally in a volume of 10 ml/kg of body weight. Freshly prepared extract was administered two times daily for 3 consecutive days. Single dose—25 mg/kg, daily dose—50 mg/kg. 60 minutes after last administration, a water solution of Aminophylline (10 ml/kg) was given to each animal in dose of 240 mg/kg (corresponding to 192 mg/kg of Theophylline) and blood samples were taken 0.25, 0.5, 1.0, 2.0, 4.0, 6.0 and 8.0 hours after the theophylline administration. A separate group of animals was used for each time point.
One tablet of Jarsin 300 was suspended in 10 ml of water and administered two times daily for 3 consecutive days. 60 minutes after last administration, water solution of Aminophylline (10 ml/kg) was given to each animal in dose of 240 mg/kg (corresponding to 192 mg/kg of Theophylline) and blood samples were taken 0.25, 0.5, 1.0, 2.0, 4.0, 6.0 and 8.0 hours after the theophylline administration. A separate group of animals was used for each time point.
Sampling of blood and sample preparation—Animals were sacrificed by laboratory guillotine. Following decapitation, blood was collected separately in centrifuge tubes and centrifuged at 3000 rpm for 10 min. Blood serum was separated and 50 μl was taken for theophylline assay. Conservation of the samples: the centrifuge tubes were closed with caps, frozen and stored in a freezer for 1-3 days prior to bio-assay.
Analytical Method: Capillary Electrophoresis—A modified capillary electrophoresis method was used, using an internal standard and as a mobile phase 50 mM borate buffer (pH 9.3) without SDS.
Pre-assay preparation—The Ramzan et al. method (52) of extraction of theophylline from serum was modified as follows. 50 μl of blood serum was added to 10 μl of an internal standard methanol solution (methyl-paraben, 60 μg/ml) in centrifuge tube to obtain final concentration of methyl paraben 10 μg/ml. The solution was vortexed vigorously for 10 sec and 1 ml of solvent system of isopropanol. and chloroform in a 5:95 ratio was added for extraction.

[1] = Concentration of Theophylline in Rat Serum, Mean, Group 2 (CRE pretreatment 3 days), aminophylline 240 mg/kg p.o., mean n=6
[2] = Concentration of Theophylline in Rat Serum, Mean, Group 3 (Jarsin 300 pretreatment 3 days), aminophylline 240 mg/kg p.o., mean n=6
[3] = po, 240 mg/kg, Group 2 (CRE pretreatment), rats, calculated by mean concentrations
[4] = po, 240 mg/kg, Mean, Group 1 (water control), rats, mean of 6 series (column A)
[5] = po, 240 mg/kg, Mean, Group 2 (CRE pretreatment), rats, mean of 6 series (column A)
[6] = po, 240 mg/kg, Mean, Group 3 (Jarsin 300 pretreatment), rats, mean of 6 series (column A)
[7] = po, Group 3 (Jarsin 300 pretreatment), rats, calculated by mean concentrations
[8] = po, Mean, Group 3 (Jarsin 300 pretreatment), rats, mean of 6 series (column A)
[9] = po, Mean, Group 2 (CRE pretreatment), rats, mean of 6 series (column A)

Cn1c(=O)c2[nH]cnc2n(C)c1=O [Theophylline, 1,3-dimethylxantin]
concentration at 480 min (240 mg/kg, Level of theophylline in serum after 480 minutes, Group 1 (water control), rats): ~51000 ng/mL | Cmax (Group 2 (CRE pretreatment), rats, calculated by mean concentrations, 60 minutes): 142000 ng/mL | Cmax (Group 3 (Jarsin 300 pretreatment), rats, calculated by mean concentrations, 60 minutes): 41600 ng/mL | concentration at 60 min (Concentration of Theophylline in Rat Serum, Group 2 (CRE pretreatment 3 days), aminophylline 240 mg/kg p.o., single rat): 109000 ng/mL | concentration at 15 min (Concentration of Theophylline in Rat Serum, Group 3 (Jarsin 300 pretreatment 3 days), aminophylline 240 mg/kg p.o., single rat): 6640 ng/mL | concentration at 15 min [1]: 128000 ng/mL | concentration at 30 min [1]: 138000 ng/mL | concentration at 60 min [1]: 142000 ng/mL | concentration at 120 min [1]: 130000 ng/mL | concentration at 240 min [1]: 103000 ng/mL | concentration at 360 min [1]: 71000 ng/mL | concentration at 480 min (Concentration of Theophylline in Rat Serum, Mean, Group 2 (CRE pretreatment 3 days), aminophylline 240 mg/kg p.o., 480 min, mean n=6): 31800 ng/mL | concentration at 15 min [2]: 5170 ng/mL | concentration at 30 min [2]: 25500 ng/mL | concentration at 60 min [2]: 41600 ng/mL | concentration at 120 min [2]: 31100 ng/mL | concentration at 240 min [2]: 16500 ng/mL | concentration at 360 min [2]: 15700 ng/mL | concentration at 480 min (Concentration of Theophylline in Rat Serum, Mean, Group 3 (Jarsin 300 pretreatment 3 days), aminophylline 240 mg/kg p.o., 480 min, mean n=6): 9280 ng/mL | concentration at 480 min (Theophylline concentration in serum after 480 minutes, Group 2 (rats treated with CRE)): ~32000 ng/mL | concentration at 480 min (Theophylline concentration in serum after 480 minutes, Group 3 (rats treated with Jarsin 300)): ~9300 ng/mL | AUC(0-inf) (po, 240 mg/kg, Group 1 (water control), rats, single series): 1090 µg·h/mL | AUC(0-inf) [3]: 956 µg·h/mL | AUC(0-inf) (po, 240 mg/kg, Mean, Group 1 (water control), rats, mean of 6 series): 1020 µg·h/mL | AUC(0-inf) [4]: 1020 ± 109 µg·h/mL | AUC(0-inf) [5]: 920 ± 128 µg·h/mL | AUC(0-inf) (po, 240 mg/kg, Mean, Group 3 (Jarsin 300 pretreatment), rats, mean of 6 series): 214 µg·h/mL | Cmax [4]: 195000 ng/mL | Cmax [5]: 169000 ± 14400 ng/mL | Cmax [6]: 43900 ng/mL | MRT (po, 240 mg/kg, Group 1 (water control), rats, calculated by mean concentrations): 6.83 h | MRT [3]: 5.14 h | MRT [4]: 6.62 h | MRT [5]: 4.45 ± 0.696 h | MRT [6]: 5.44 h | half-life (po, 240 mg/kg, T1/2 of Theophylline, Group 1 (water control), rats, calculated by mean concentrations): 4.66 h | half-life (po, 240 mg/kg, T1/2 of Theophylline, Group 2 (CRE pretreatment), rats, calculated by mean concentrations): 3.39 h | half-life (po, 240 mg/kg, T1/2 of Theophylline, Mean, Group 2 (CRE pretreatment), rats, mean of 6 series (column A)): 2.81 ± 0.404 h | half-life (po, 240 mg/kg, t1/2 of Theophylline, Mean, Group 1 (water control), rats, mean of 6 series (column A)): 4.5 h | half-life (po, 240 mg/kg, t1/2 of Theophylline, Mean, Group 3 (Jarsin 300 pretreatment), rats, mean of 6 series (column A)): 3.55 h | AUC(0-inf) (po, Group 1 (water control), rats, calculated by mean concentrations): 1030 µg·h/mL | AUC(0-inf) [7]: 208 µg·h/mL | AUC(0-inf) (po, Mean, Group 2 (CRE pretreatment), rats, mean of 6 series): 920 µg·h/mL | AUC(0-inf) [8]: 214 ± 31 µg·h/mL | Cmax (po, Group 2 (CRE pretreatment), rats, single series): 158000 ng/mL | Cmax (po, Group 3 (Jarsin 300 pretreatment), rats, calculated by mean concentrations, 60 minutes): 41600 ng/mL | Cmax [9]: 169000 ng/mL | Cmax [8]: 43900 ± 8490 ng/mL | MRT [7]: 5.36 h | MRT [9]: 4.45 h | MRT [8]: 5.44 ± 0.559 h | half-life (po, T1/2 of Theophylline, Group 3 (Jarsin 300 pretreatment), rats, calculated by mean concentrations): 3.43 h | half-life (po, T1/2 of Theophylline, Mean, Group 2 (CRE pretreatment), rats, mean of 6 series (column A)): 2.81 h | half-life (po, t1/2 of Theophylline, Mean, Group 3 (Jarsin 300 pretreatment), rats, mean of 6 series (column A)): 3.55 ± 0.549 h

Reference: patent US6905706B2, “Medicinal herbal extract carpediol for treating depression” (Swedish Herbal Institute, priority 2002, dated 2005)
